# Assay results published in patent publication US8552208B2, “Analogs of tetramic acid” (University of Tennesseee Research Foundation, priority 2007, dated 2013).
# Read-outs that look alike come from different tables or passages of the source.
# How the values were obtained:
# [1] = system: MSSA (ATCC 25293) biofilm; assay: Calgary Biofilm Device anti-biofilm activity; assay type: cell-based; details: Staphylococcus aureus; for MBC: read-out: MBEC = Minimum Biofilm Eradication Concentration
# [2] = system: MRSA (ATCC 35391) biofilm; assay: Calgary Biofilm Device anti-biofilm activity; assay type: cell-based, Staphylococcus aureus; details: for MIC: read-out: MBIC = Minimum Biofilm Inhibitory Concentration
# [3] = system: S. epidermidis (RP62A) biofilm; assay: Calgary Biofilm Device anti-biofilm activity; assay type: cell-based; details: Staphylococcus epidermidis; for MIC: read-out: MBIC = Minimum Biofilm Inhibitory Concentration
# [4] = system: Propionibacterium acnes ATCC 6919; assay: Antibacterial activity assay (MIC, broth dilution); assay type: cell-based; details: Cutibacterium acnes, ATCC6919; Propionibacterium acnes ATCC 6919; read-out: MIC, PA
# [5] = system: clinical isolates of MSSA (methicillin sensitive S. aureus); assay type: cell-based
# [6] = system: Streptococcus pneumoniae DAW30EC; assay: Antibacterial activity assay (MIC, broth dilution); assay type: cell-based; details: Streptococcus pneumoniae DAW30EC; read-out: MIC, SPn
# [7] = system: Methicillin sensitive Staphylococcus aureus 8325 ATCC 35556; assay: Antibacterial activity assay (MIC, broth dilution); assay type: cell-based; details: ATCC 35556 / MSSA; Methicillin sensitive Staphylococcus aureus 8325 ATCC 35556; read-out: MIC, MSSA
# [8] = system: Mycobacterium tuberculosis H37 Rv; assay: Antibacterial activity assay (MIC, broth dilution); assay type: cell-based; details: H37RV, 168 h; Mycobacterium tuberculosis H37 Rv; […]; read-out: MIC, TB
# [9] = system: Bacillus anthracis Sterne 34F2; assay: microbe, parasite or virus in culture; assay type: cell-based; details: STERNE34F2, read-out: MIC, BA
# [10] = system: Bacillus subtilis ATCC 23857; assay: Antibacterial activity assay (MIC, broth dilution); assay type: cell-based; details: ATCC23857; Bacillus subtilis ATCC 23857; read-out: MIC, BS
# [11] = system: Streptococcus pyogenes ATCC 700294; assay: Antibacterial activity assay (MIC, broth dilution); assay type: cell-based; details: ATCC700294; Streptococcus pyogenes ATCC 700294; read-out: MIC, SP
# [12] = system: clinical isolates of MRSA (methicillin resistant S. aureus); assay type: cell-based
# [13] = system: Methicillin Resistant Staphylococcus aureus ATCC 33591; assay: Antibacterial activity assay (MIC, broth dilution); assay type: cell-based; details: ATCC 33591 / MRSA, read-out: MIC, MRSA
# [14] = system: Enterococcus faecalis ATCC 33186; assay: Antibacterial activity assay (MIC, broth dilution); assay type: cell-based; details: ATCC33186; Enterococcus faecalis ATCC 33186; read-out: MIC, EF
# Cytotoxicity assay (MTT) = assay type: cell-based, monkey; details: monkey, Vero monkey kidney cells (ATCC CCL-81); Vero cells, 72 hours, MTT; read-out: IC50 (Cytotoxicity): Concentration which reduces viability of Vero kidney cells by 50%
# Procedure: (§1) Cytotoxicity assays of drugs of Formula I of Example 3 and of Formula II of Example 5 were performed using the Vero monkey kidney cell line (ATCC, CCL-81). Vero cells were grown in tissue culture flasks in Dulbecco's Modified Eagle's Medium (ATCC) supplemented with 10% fetal bovine serum and maintained in a humidified incubator (37° C., 5% CO2). Cells were removed with a cell scraper, collected by centrifugation and then suspended in fresh medium at ˜10^6 cells/mL. The cell suspensions were dispensed into 96-well microtiter plates (100 μl/well) and incubated for 18 hours at 37° C. before being used for cytotoxicity assays. Test compounds were subsequently added at concentrations ranging from 400-0.024 μg/mL and 0.1% vol/vol of Triton-X 100, which causes 100% death of cells, was included as a control. After incubating cells and compounds for 72 hours in humid air (37° C., 5% CO2) the cytopathic effects of compounds were determined using the MTT Cell Proliferation Assay (ATCC, Cat No. 30-1010K). The MTT solution reagent (10 μl) was added to each well and plates incubated at 37° C. until sufficient purple color development occurred in cells (3 hours). After detergent cell lysis, the purple formazan product was measured at 570 nm in a Synergy HT Biotek microplate reader. IC50 data was obtained from dose response curves plotted from percentage activity versus log10 concentration using Graphpad prism 5.
# [15] = system: Vero monkey kidney cell line (ATCC, CCL-81); assay: Cytotoxicity assay (MTT); assay type: cell-based; details: IC50 divided by MIC against S. aureus 8325
# Procedure: as §1
smiles,measurement,setting,value
"CN[C@H](CC(C)C)C(=O)N[C@H]1C(=O)N[C@@H](CC(N)=O)C(=O)N[C@H]2C(=O)N[C@H]3C(=O)N[C@H](C(=O)N[C@H](C(=O)O)c4cc(O)cc(O)c4-c4cc3ccc4O)[C@H](O)c3ccc(c(Cl)c3)Oc3cc2cc(c3O[C@@H]2O[C@H](CO)[C@@H](O)[C@H](O)[C@H]2O[C@H]2C[C@](C)(N)[C@H](O)[C@H](C)O2)Oc2ccc(cc2Cl)[C@H]1O [Vancomycin, vancomycin, reference compound]",MBC,[1],> 400 µg/mL
same,MBC,"[2]; Staphylococcus aureus, read-out: MBEC = Minimum Biofilm Eradication Concentration",> 400 µg/mL
same,MIC,[2]; Staphylococcus aureus,1.6 µg/mL
same,MBC,[3]; read-out: MBEC = Minimum Biofilm Eradication Concentration,> 400 µg/mL
same,MIC,[3],12.5 µg/mL
"CCCCCCCCCCN1C(=O)/C(=C(/C)O)C(=O)[C@@H]1Cc1ccccc1 [Compound 13n, (S,Z)-5-benzyl-1-decyl-3-(1-hydroxyethylidene)pyrrolidine-2,4-dione]",MIC,[4],0.4 µg/mL
same,Antibiotic MIC,[5]; isolate MSSA-11,0.8 µg/mL
same,Antibiotic MIC,[5]; isolate MSSA-12,0.8 µg/mL
same,Antibiotic MIC,[5]; isolate MSSA-13,0.8 µg/mL
same,Antibiotic MIC,[5]; isolate MSSA-14,1.6 µg/mL
same,Antibiotic MIC,[5]; isolate MSSA-15,0.2 µg/mL
same,Antibiotic MIC,[5]; isolate MSSA-16,0.8 µg/mL
same,Antibiotic MIC,[5]; isolate MSSA-17,0.8 µg/mL
same,Antibiotic MIC,[5]; isolate MSSA-18,0.8 µg/mL
same,Antibiotic MIC,[5]; isolate MSSA-19,0.4 µg/mL
same,Antibiotic MIC,[5]; isolate MSSA-20,0.8 µg/mL
same,MIC,[6],12.5 µg/mL
same,MIC,[7],0.2 µg/mL
same,MIC,[8],50 µg/mL
same,MIC,[9],0.2 µg/mL
same,MIC,[10],0.4 µg/mL
same,MIC,[11],50 µg/mL
same,Antibiotic MIC,[12]; isolate MRSA-1,1.6 µg/mL
same,Antibiotic MIC,[12]; isolate MRSA-2,1.6 µg/mL
same,Antibiotic MIC,[12]; isolate MRSA-3,1.6 µg/mL
same,Antibiotic MIC,[12]; isolate MRSA-4,0.8 µg/mL
same,Antibiotic MIC,[12]; isolate MRSA-5,0.8 µg/mL
same,Antibiotic MIC,[12]; isolate MRSA-6,0.8 µg/mL
same,Antibiotic MIC,[12]; isolate MRSA-7,0.8 µg/mL
same,Antibiotic MIC,[12]; isolate MRSA-8,0.2 µg/mL
same,Antibiotic MIC,[12]; isolate MRSA-9,0.8 µg/mL
same,Antibiotic MIC,[12]; isolate MRSA-10,0.8 µg/mL
same,MIC,[13],0.8 µg/mL
same,MIC,[14],0.8 µg/mL
same,IC50 at 72 h,Cytotoxicity assay (MTT),21.1 µg/mL
same,IC50/MIC = Selectivity (therapeutic) index,[15],105.5
"CO[C@H]1/C=C/O[C@@]2(C)Oc3c(C)c(O)c4c(O)c(c(/C=N/N5CCN(C)CC5)c(O)c4c3C2=O)NC(=O)/C(C)=C\C=C\[C@H](C)[C@H](O)[C@@H](C)[C@@H](O)[C@@H](C)[C@H](OC(C)=O)[C@@H]1C [Rifampicin, rifampicin, reference compound]",MBC,"[1]; MSSA biofilm, triplicate runs listed singly",100 µg/mL
same,MIC,"[1]; MSSA biofilm, triplicate runs listed singly, read-out: MBIC = Minimum Biofilm Inhibitory Concentration",0.4 µg/mL
same,MBIC = Minimum Biofilm Inhibitory Concentration,"[2]; MRSA biofilm, triplicate runs listed singly",<0.2 µg/mL
same,MIC,"[2]; Staphylococcus aureus, MRSA biofilm, triplicate runs listed singly",< 0.2 µg/mL
same,MIC,"[3]; S. epidermidis biofilm, triplicate runs listed singly",< 0.2 µg/mL
